Data as given in US11091786B2, “Butelase-mediated peptide ligation” (Nanyang Technological University, priority 2015, dated 2021).
In brackets after ≈: the same amount, converted by molar mass. Bridge positions count the residues as written; N and C are the ends. Square brackets hold non-standard residues; d marks the D form. Peptide text beside a SMILES is read from it. I, II: the chains in the order shown. βAla = NCCC(=O)O

Assays:
Type in all cases: cell-based
E. cloacae DM 09800 = conditions: DM 09800, 18 h
Protocol: (§1) The following protocol was applied to the radial diffusion assay.
(§2) 1. A single colony was picked and transferred into a 5 ml tube containing 2.5 ml TSB. The culture was shaken at 37° C. for 18 h.
(§3) 2. 50 μl of the stationary phase culture was diluted to 2.5 mL of autoclaved TSB (1:50 dilution) and shaken at 37° C. for another 3 h.
(§4) 3. This subculture was centrifuged at 5000 rpm for 5 min and the supernatant was discarded. The residual cells were washed with cold sterile 10 mM phosphate buffer, pH 7.4 and the buffer was discarded after centrifuge. 5 ml of the same buffer was added to resuspend the cells and its bacteria concentration was determined by measuring its optical density at 620 nm.
(§5) 4. 10 ml of antoclaved, molten underlay gel agar was transferred to a 15-ml eppendorf tube and mixed with 4×10^6 CFU of bacteria by vortexing. The mixture was then poured into a petri dish and gelled in less than […]. Wells were punched against the gel using a Pasteur pippette.
(§6) 5. Peptides to be tested were serially diluted and 3.5 μl of each sample was added to the well. The plates were incubated at 37° C. for 3 h with gel-side up.
(§7) 6. Next, each underlay gel was covered with 10 ml of overlay gel. After the gel solidified, the plates were turned gel-side up and incubated at 37° C. for overnight.
(§8) 7. The following morning, all the plates were taken out and the zone diameters were measured with ruler. All the samples were tested in duplicates and the results were averaged. The final minimum inhibition concentration (MIC) was determined using excel.
(§9) There is a growing interest to develop peptide-based antibiotics (Annu Rev Immunol. 1995, 13, 61-92; J Intern Med. 2003, 254, 197-215; Cent Eur J Biol 2007, 2, 1-33; Int J Pept Res Ther. 2010, 16, 199-213) because, compared with conventional antibiotics, they are less likely to develop drug resistance and have fewer side effects (J Med Chem. 2015, 58, 6533-6548; Biochemistry-Us. 2000, 39, 7159-7169; Eur J Biochem. 2000, 267, 3289-3300; Nucleic Acids Res. 2012, 40, W199-204). To apply the presently disclosed enzymatic method in preparing dendrimeric antimicrobials, inventors synthesized two antimicrobials 12 (bivalent) and 13 (tetravalent) (MS shown in supporting information) which harbored a tetrapeptide RLYR (SEQ ID NO:121) as the antibacterial sequence (Eur J Biochem. 2002, 269, 923-932) by ligating N-acetylated thiodepsipeptide 10 Ac-RLYRN-thioglc-V (SEQ ID NO:120) with dendron core 2 and 6 respectively. The RLYR (SEQ ID NO:121) tetrapeptide contains a BHHB motif (B=basic, H=hydrophobic) which is commonly found in certain potent and broad-spectrum β-stranded antimicrobial peptides (BioDrugs. 2013, 27, 479-493) such as PG (protegrins) (Febs Lett. 1993, 327, 231-236) and RTD-1 (rhesus monkey theta defensin) (Science. 1999, 286, 498-502). This consensus motif with positive charged and hydrophobic residues was successfully used as a dendrimeric antimicrobial in 2002 (Eur J Biochem. 2002, 269, 923-932). Such short peptide-based dendrimeric antimicrobials are broad-spectrum antibiotics and kill bacterial cells through electrostatic and hydrophobic interactions with the negatively charged microbial cytoplasmic membranes (Biochemistry-Us. 2009, 48, 5642-5657). Using a radial diffusion assay, inventors tested the antimicrobial activities against E. coli and S. aureus of these two dendrimeric peptides together with prototypical monomer 11 RLYR (SEQ ID NO:121), mono-, tri-lysine dendron core 2 and 6 for comparison. All assays were performed under a high-salt condition (100 mM NaCl) to simulate physiological conditions. […] The tetravalent dendrimeric structure 13 had further improved antimicrobial activities with MICs<3 μM against both strains. When testing 13 against several drug-resistant strains under high-salt condition, the tetramer construct was broadly active against all six tested strains with MICs ranging from 0.87 to 4.8 μM. […]

E. coli DM 04604 = conditions: DM 04604, 18 h
Protocol: as §1, §2, §3, §4, §5, §6, §7, §8, §9

E. coli DU 09777 = conditions: DU 09777, 18 h
Protocol: as §1, §2, §3, §4, §5, §6, §7, §8, §9

K. species DR 13779 = conditions: 18 h
Protocol: as §1, §2, §3, §4, §5, §6, §7, §8, §9

P. aeruginosa DM 14158 = conditions: DM 14158, 18 h
Protocol: as §1, §2, §3, §4, §5, §6, §7, §8, §9

S. aureus DB 14329 = conditions: DB 14329, 18 h
Protocol: as §1, §2, §3, §4, §5, §6, §7, §8, §9

drug-resistant strains = test system: drug-resistant strains
Protocol: as §1, §2, §3, §4, §5, §6, §7, §8, §9

SMILES: CC[C@H](C)[C@H](NC(=O)[C@H](CCCNC(=N)N)NC(=O)[C@H](CC(N)=O)NC(=O)[C@H](CCCNC(=N)N)NC(=O)[C@H](Cc1ccc(O)cc1)NC(=O)[C@H](CC(C)C)NC(=O)[C@H](CCCNC(=N)N)NC(C)=O)C(=O)NCCC(=O)NCCCC[C@H](NC(=O)CCNC(=O)[C@@H](NC(=O)[C@H](CCCNC(=N)N)NC(=O)[C@H](CC(N)=O)NC(=O)[C@H](CCCNC(=N)N)NC(=O)[C@H](Cc1ccc(O)cc1)NC(=O)[C@H](CC(C)C)NC(=O)[C@H](CCCNC(=N)N)NC(C)=O)[C@@H](C)CC)C(=O)NCCCC[C@H](NC(=O)[C@H](CCCCNC(=O)CCNC(=O)[C@@H](NC(=O)[C@H](CCCNC(=N)N)NC(=O)[C@H](CC(N)=O)NC(=O)[C@H](CCCNC(=N)N)NC(=O)[C@H](Cc1ccc(O)cc1)NC(=O)[C@H](CC(C)C)NC(=O)[C@H](CCCNC(=N)N)NC(C)=O)[C@@H](C)CC)NC(=O)CCNC(=O)[C@@H](NC(=O)[C@H](CCCNC(=N)N)NC(=O)[C@H](CC(N)=O)NC(=O)[C@H](CCCNC(=N)N)NC(=O)[C@H](Cc1ccc(O)cc1)NC(=O)[C@H](CC(C)C)NC(=O)[C@H](CCCNC(=N)N)NC(C)=O)[C@@H](C)CC)C(=O)N[C@@H](Cc1ccc(O)cc1)C(N)=O [Tetramer 13, (Ac-RLYRNRIβA)4K2KY] (I: Ac-RLYRNRI[βAla]KKY-NH2 / II: Ac-RLYRNRI[βAla]K / III: Ac-RLYRNRI[βAla] / IV: Ac-RLYRNRI[βAla]; amide I:9-IV:C, I:10-II:C, II:9-III:C)
- MIC (E. cloacae DM 09800): 0.9 µM (≈ 4.42 µg/mL)
- MIC (E. coli DM 04604): 4.5 µM (≈ 22.1 µg/mL)
- MIC (E. coli DU 09777): 2.2 µM (≈ 10.8 µg/mL)
- MIC (K. species DR 13779): 1.5 µM (≈ 7.36 µg/mL)
- MIC (P. aeruginosa DM 14158): 2.3 µM (≈ 11.3 µg/mL)
- MIC (S. aureus DB 14329): 4.8 µM (≈ 23.5 µg/mL)
- MICs, broad-spectrum (drug-resistant strains; all strains tested, including several drug-resistant bacterial strains): < 5 µM
- MICs against all six tested drug-resistant strains (drug-resistant strains; six drug-resistant strains, high-salt condition): 0.87 to 4.8 µM
